# According to patent US5011831A, “Derivatives of quinolinecarboxylic acid” (Nippon Shinyaku Co. Ltd., priority 1987, dated 1991):
# Like-named read-outs stand apart in the source and are kept apart here.
# Tests used:
# [1] = tested on: Shigella flexneri 2a EW-10; experiment: MIC, agar plate dilution method; format: cell-based
# Procedure: (§1) Test Method: In accordance with a standard method by Japan Chemotherapeutic Society [Chemotherapy, 29(1), pages 76-79, 1981], agar plate dilution method was used and the MIC was measured. Thus, bouillon for measuring sensitivity was used and the bacterial liquid cultured at 37° C. for 18 hours was diluted to an extent of 10^6 CFU/ml using said medium. This was inoculated to an agar medium containing drug for measuring sensitivity using a microplanter, cultured at 37° C. for 18 hours, and MIC was measured. Ofloxacin was used for comparison/control.
# (§2) The above described test was additionally conducted on the compounds of the examples described below using the same microorganisms.
# [2] = tested on: Staphylococcus aureus 209-P JC-1; experiment: MIC, agar plate dilution method; format: cell-based
# Procedure: as §1, §2
# [3] = tested on: Serratia marcescens IFO 3736; experiment: MIC, agar plate dilution method; format: cell-based
# Procedure: as §1, §2
# [4] = tested on: Klebsiella pneumoniae NCTC 9632; experiment: MIC, agar plate dilution method; format: cell-based
# Procedure: as §1, §2
# [5] = tested on: Proteus mirabilis IFO 3849; experiment: MIC, agar plate dilution method; format: cell-based; conditions: IFO3849, Table 1, 10^6 CFU/ml, 37° C., 18 hours
# Procedure: as §1, §2
# [6] = tested on: Escherichia coli N1HJ JC-2; experiment: MIC, agar plate dilution method; format: cell-based
# Procedure: as §1, §2
# [7] = tested on: Pseudomonas aeruginosa IFO-3445; experiment: MIC, agar plate dilution method; format: cell-based
# Procedure: as §1, §2
# [8] = tested on: Streptococcus pyogenes S-23; experiment: MIC, agar plate dilution method; format: cell-based
# Procedure: as §1, §2
# [9] = tested on: Bacillus subtilis ATCC 6633; experiment: MIC, agar plate dilution method; format: cell-based
# Procedure: as §1, §2
# [10] = tested on: Streptococcus pneumoniae Type I; experiment: MIC, agar plate dilution method; format: cell-based
# Procedure: as §1, §2
# P. aeruginosa E-2 [11] = experiment: Therapeutic effect on infections in mice (Table 3); format: in vivo, ddY strain male mice; conditions: P. aeruginosa E-2, 7.5×10^4 CFU/mouse i.p.; drug orally once 2 hours after inoculation; survival after one week, Probit
# Procedure: (§3) Test method: E. Coli KC-14 and P. aeruginosa E-2 were suspended in 5% mucin and 0.5 ml of the suspension was injected intraperitoneally to ddY strain male mice (body weight: ca. 20 g; four weeks age; 10 mice per group). The amount of the bacteria inoculated was 5.1×10^4 CFU/mouse for E. coli and 7.5×10^4 CFU/mouse for P. aeruginosa. Drug was given orally once after 2 hours of inoculation and, out of the survival rate after one week, ED50 was calculated by a Probit method. As to a comparison/control, ofloxacin was used.
# E. Coli KC-14 [12] = experiment: Therapeutic effect on infections in mice (Table 3); format: in vivo, ddY strain male mice; conditions: E. coli KC-14, 5.1×10^4 CFU/mouse i.p.; drug orally once 2 hours after inoculation; survival after one week, Probit
# Procedure: as §3
# P. aeruginosa E-2 [13] = experiment: Therapeutic effect on infections in mice, similar test (Table 4); format: in vivo, ddY strain male mice; conditions: P. aeruginosa E-2, 1.25×10^5 cfu/mouse
# Procedure: as §3
# (§4) A similar test was conducted by inoculating E. coli KC-14 (2.5×10^5 cfu/mouse) and P. aeruginosa E-2 (1.25×10^5 cfu/mouse) and the result is given in Table 4.
# E. Coli KC-14 [14] = experiment: as above; format: in vivo, ddY strain male mice; conditions: E. coli KC-14, 2.5×10^5 cfu/mouse
# Procedure: as §3, §4
# [15] = 2AEW10, Table 1, 10^6 CFU/ml, 37° C., 18 hours
# [16] = Table 1, 10^6 CFU/ml, 37° C., 18 hours
# [17] = IFO3736, Table 1, 10^6 CFU/ml, 37° C., 18 hours
# [18] = NCTC9632, Table 1, 10^6 CFU/ml, 37° C., 18 hours
# [19] = IFO3445, Table 1, 10^6 CFU/ml, 37° C., 18 hours
# [20] = S23, Table 1, 10^6 CFU/ml, 37° C., 18 hours
# [21] = ATCC6633, Table 1, 10^6 CFU/ml, 37° C., 18 hours
# [22] = 2AEW10, 18 h, Table 2, same microorganisms as Table 1
# [23] = 18 h, Table 2, same microorganisms as Table 1
# [24] = IFO3736, 18 h, Table 2, same microorganisms as Table 1
# [25] = NCTC9632, 18 h, Table 2, same microorganisms as Table 1
# [26] = N1HJJC2, 18 h, Table 2, same microorganisms as Table 1, read-out: MIC
# [27] = IFO3445, 18 h, Table 2, same microorganisms as Table 1
# [28] = ATCC6633, 18 h, Table 2, same microorganisms as Table 1
structure (smiles),measurement,setting,value
"CC1COc2c(N3CCN(C)CC3)c(F)cc3c(=O)c(C(=O)O)cn1c23 (racemic) [Ofloxacin, ofloxacin, reference compound]",MIC,[1]; [15],0.025 µg/mL
same,MIC,[2]; [16],0.39 µg/mL
same,MIC,[3]; [17],0.78 µg/mL
same,MIC,[4]; [18],0.05 µg/mL
same,MIC,[5],0.39 µg/mL
same,MIC,"[6]; N1HJJC2, Table 1, 10^6 CFU/ml, 37° C., 18 hours, read-out: MIC",0.1 µg/mL
same,MIC,[7]; [19],1.56 µg/mL
same,MIC,[8]; [20],1.56 µg/mL
same,MIC,[9]; [21],0.1 µg/mL
same,MIC,[10]; [16],1.56 µg/mL
same,ED50,P. aeruginosa E-2 [11],0.692 mg/mouse
same,ED50,E. Coli KC-14 [12],0.011 mg/mouse
same,ED50,P. aeruginosa E-2 [13],0.521 mg/mouse
same,ED50,E. Coli KC-14 [14],0.052 mg/mouse
"CCOC(=O)c1c2n(c3c(F)c(N4CCNCC4)c(F)cc3c1=O)C(C)S2 (centres unmarked) [Example 1, Ethyl 6,8-difluoro-1-methyl-4-oxo-7-(1-piperazinyl)-4H-[1,3]thiazeto[3,2-a]quinoline-3-carboxyate]",ED50,P. aeruginosa E-2 [11],0.09 mg/mouse
same,ED50,E. Coli KC-14 [12],0.0046 mg/mouse
"CC1Sc2c(C(=O)O)c(=O)c3cc(F)c(N4CCNCC4)c(F)c3n21 (centres unmarked) [Example 2, 6,8-Difluoro-1-methyl-4-oxo-7-(1-piperazinyl)-4H-[1,3]thiazeto[3,2-a]quinoline-3-carboxylic acid]",MIC,[1]; [15],≤ 0.00625 µg/mL
same,MIC,[2]; [16],0.1 µg/mL
same,MIC,[3]; [17],0.1 µg/mL
same,MIC,[4]; [18],0.0125 µg/mL
same,MIC,[5],0.025 µg/mL
same,MIC,"[6]; N1HJJC2, 18 h",0.0125 µg/mL
same,MIC,[7]; [19],0.1 µg/mL
same,MIC,[8]; [20],0.39 µg/mL
same,MIC,[9]; [21],0.05 µg/mL
same,MIC,[10]; [16],0.39 µg/mL
same,ED50,P. aeruginosa E-2 [11],0.154 mg/mouse
same,ED50,E. Coli KC-14 [12],0.0078 mg/mouse
same,ED50,P. aeruginosa E-2 [13],0.156 mg/mouse
same,ED50,E. Coli KC-14 [14],0.013 mg/mouse
"CC1Sc2c(C(=O)O)c(=O)c3cc(F)c(N4CCN(C)CC4)c(F)c3n21 (centres unmarked) [Example 4, 6,8-Difluoro-1-methyl-7-(4-methyl-1-piperazinyl)-4-oxo-[1,3]thiazeto[3,2-a]quinoline-3-carboxylic acid]",MIC,[1]; [22],0.0125 µg/mL
same,MIC,[2]; [23],0.2 µg/mL
same,MIC,[3]; [24],0.2 µg/mL
same,MIC,[4]; [25],0.025 µg/mL
same,MIC,[6]; [26],0.05 µg/mL
same,MIC,[7]; [27],0.2 µg/mL
same,MIC,"[8]; S23, 18 h, Table 2, same microorganisms as Table 1",0.39 µg/mL
same,MIC,[9]; [28],0.05 µg/mL
same,MIC,[10]; [23],0.39 µg/mL
same,ED50,P. aeruginosa E-2 [13],0.177 mg/mouse
same,ED50,E. Coli KC-14 [14],0.011 mg/mouse
"O=C(O)c1c2n(c3c(F)c(N4CCNCC4)c(F)cc3c1=O)CS2 [Example 5, 6,8-Difluoro-4-oxo-7-(1-piperazinyl)-4-oxo-4H-[1,3]thiazeto[3,2-a]quinoline-3-carboxylic acid]",MIC,[1]; [22],0.0125 µg/mL
same,MIC,[2]; [23],0.1 µg/mL
same,MIC,[3]; [24],0.05 µg/mL
same,MIC,[4]; [25],0.025 µg/mL
same,MIC,[6]; [26],0.025 µg/mL
same,MIC,[7]; [27],0.2 µg/mL
same,MIC,[9]; [28],0.1 µg/mL
"CN1CCN(c2c(F)cc3c(=O)c(C(=O)O)c4n(c3c2F)CS4)CC1 [Example 7, 6,8-Difluoro-7-(4-methyl-1-piperazinyl)-4-oxo-4H-[1,3]thiazeto[3,2-a]quinoline-3-carboxylic acid]",MIC,[1]; [22],0.025 µg/mL
same,MIC,[2]; [23],0.2 µg/mL
same,MIC,[3]; [24],0.1 µg/mL
same,MIC,[4]; [25],0.0125 µg/mL
same,MIC,[6]; [26],0.05 µg/mL
same,MIC,[7]; [27],0.39 µg/mL
same,MIC,[9]; [28],0.05 µg/mL
same,ED50,P. aeruginosa E-2 [13],0.263 mg/mouse
same,ED50,E. Coli KC-14 [14],0.014 mg/mouse
"NC1CCN(c2c(F)cc3c(=O)c(C(=O)O)c4n(c3c2F)CS4)C1 (centres unmarked) [Example 9, 7-(3-Amino-1-pyrrolidinyl)-6,8-difluoro-4-oxo-4H-[1,3]thiazeto[3,2-a]quinoline-3-carboxylic acid]",MIC,[1]; [22],≤ 0.00625 µg/mL
same,MIC,[2]; [23],0.025 µg/mL
same,MIC,[3]; [24],0.1 µg/mL
same,MIC,[4]; [25],0.0125 µg/mL
same,MIC,[6]; [26],0.0125 µg/mL
same,MIC,[7]; [27],0.0125 µg/mL
same,MIC,[9]; [28],0.1 µg/mL
"O=C(O)c1c2n(c3c(F)c(N4CCNCC4)c(F)cc3c1=O)C(c1ccccc1)S2 (centres unmarked) [Example 21, 6,8-Difluoro-4-oxo-1-phenyl-7-(1-piperazinyl)-4H-[1,3]thiazeto[3,2-a]quinoline-3-carboxylic acid]",MIC,[1]; [22],0.05 µg/mL
same,MIC,[2]; [23],0.2 µg/mL
same,MIC,[3]; [24],1.56 µg/mL
same,MIC,[4]; [25],≤ 0.00625 µg/mL
same,MIC,[6]; [26],0.1 µg/mL
same,MIC,[7]; [27],0.39 µg/mL
same,MIC,[9]; [28],0.1 µg/mL
"CCOC(=O)c1c2n(c3c(F)c(N4CCNCC4)c(F)cc3c1=O)C(c1ccc(F)cc1)S2 (centres unmarked) [Example 25, Ethyl 6,8-difluoro-1-(4-fluorophenyl)-4-oxo-7-(1-piperazinyl)-4H-[1,3]thiazeto[3,2-a]quinoline-3-carboxylate]",MIC,[1]; [22],0.05 µg/mL
same,MIC,[2]; [23],0.2 µg/mL
same,MIC,[3]; [24],1.56 µg/mL
same,MIC,[6]; [26],0.1 µg/mL
same,MIC,[7]; [27],0.39 µg/mL
same,MIC,[9]; [28],0.1 µg/mL
